Experimental data reported in article PMC6757289, “Design and Characterization of SGK3-PROTAC1, an Isoform Specific SGK3 Kinase PROTAC Degrader” (ACS Chemical Biology, 2019).

Molecular target: T1, SGK3 (Homo sapiens, UniProt Q96BR1)
T1 sequence (Q96BR1 1-496): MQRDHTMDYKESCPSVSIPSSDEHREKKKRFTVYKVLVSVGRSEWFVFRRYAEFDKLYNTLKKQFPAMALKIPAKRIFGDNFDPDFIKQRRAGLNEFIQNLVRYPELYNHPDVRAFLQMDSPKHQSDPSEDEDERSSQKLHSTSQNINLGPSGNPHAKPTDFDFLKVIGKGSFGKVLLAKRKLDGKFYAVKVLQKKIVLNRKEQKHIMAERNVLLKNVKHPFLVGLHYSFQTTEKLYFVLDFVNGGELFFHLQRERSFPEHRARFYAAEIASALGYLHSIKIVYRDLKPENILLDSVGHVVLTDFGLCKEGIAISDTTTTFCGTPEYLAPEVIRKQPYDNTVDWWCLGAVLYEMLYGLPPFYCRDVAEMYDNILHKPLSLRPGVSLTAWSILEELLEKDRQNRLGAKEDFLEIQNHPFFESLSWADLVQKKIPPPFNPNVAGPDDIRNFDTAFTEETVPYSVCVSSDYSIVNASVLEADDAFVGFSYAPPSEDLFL
Experiment: TMT global proteomic analysis of HEK293 cells
Type: cell-based
Parameters: global proteomic analysis of HEK293 cells treated in the presence or absence of 0.3 μM SGK3-PROTAC1; endogenous in cells; host or cells: HEK293
Conditions: HEK293, 0.3 μM, 8 h
Procedure: To establish the specificity of SGK3-PROTAC1 employing an unbiased approach, we performed quantitative Tandem–Mass–Tag (TMT)-labeled global proteomic analysis of HEK293 cells treated in the presence or absence of 0.3 μM SGK3-PROTAC1 compared to either 0.3 μM cisSGK3-PROTAC1 or DMSO for 8 h. Experiments were undertaken in triplicate, and analysis in Proteome Discoverer v2.2 using the Mascot search engine allowed relative quantification of 8766 proteins.
Figure 4 TMT proteomic analysis of HEK293 cells treated with SGK3-PROTAC1. (A) Cells were treated with DMSO (control), SGK3-PROTAC1 (0.3 μM), or cisSGK3-PROTAC1 (0.3 μM) for 8 h and lysed. Lysates were subjected to immunoblot analysis with the indicated antibodies. (B) Lysates were examined by quantitative proteomics. […]
Cell culture and proteomic sample preparation
Cells pellets were lysed with 2 ml of lysis buffer (8 M Urea, 50 mM Ammonium bicarbonate containing protease inhibitor and phosphatase inhibitor). The sample were left on ice for 15 min and were then sonicated for 5 min in ice-cold water bath under high intensity with 30 sec on and off. After sonication, benzonase® endonuclease (Merck Millipore) with the volume ratio of 1: 100 were added into the lysate to degrade DNA and RNA. The lysate were then centrifuged at 12,000 rpm for 15 min at 4 °C, and supernatants were transferred into new eppendorf tubes. The protein concentration were measured with BCA assay (Pierce™ BCA Protein Assay Kit, Thermo). The lysate from each sample was reduced with 5 mM DTT at 45 °C for 30 min. Lysates were briefly centrifuged and were cool down to room temperature before alkylation in the dark with 10 mM iodoacetamide at room temperature. The alkylation was then quenched by the addition of 5 mM DTT. Samples were first digested by Lys-C with the weight ratio of 1:200 (w/w) for 4 h at 30 °c. Then, sample were diluted with 50 mM ammonium bicarbonate to 1.5 M Urea concentration. Samples were then digested with trypsin (Pierce trypsin, Thermo) at an enzyme to protein ratio of 1:50 (w/w) at room temperature with gentle shaking for overnight.
The digest was stopped by the addition of 1% TFA (v/v), centrifuged at 10,000 g for 10 min at room temperature.
The supernatant were desalted on 200 mg SepPak tC18 cartridge (Waters). Desalted peptides were dried by vacuum centrifugation using Speedvac (Thermo).
TMT labelling and Basic C18 reverse phase (bRP) chromatography fractionation Each sample (200 μg of peptides each) was re-suspended in 100 μL of 100 mM TEAB buffer. The TMT labelling reagents were equilibrated to room temperature and 41 μL anhydrous acetonitrile was added to each reagent channel and softly vortexed for 10 min. Peptides were transferred to the corresponding TMT channels and incubated for 1 h at room temperature. The reaction was quenched with 8 μL of 5% hydroxylamine. To ensure complete labelling, 1 µg of labelled samples from each channel were analyzed by LC-MS/MS prior to mix. After evaluation, the complete TMT labelled 9 samples were then combined, acidified and dried. Sep-Pak desalting was then performed and the elution was dried to completeness.
Ultimate 3000 high-pressure liquid chromatography (HPLC) system (Dionex) were used for basic C18 reverse phase chromatography fractionation operating at 569 µL/min with two buffers: buffer A (10 mM ammonium formate, pH 10) and buffer B (80% ACN, 10 mM ammonium formate, pH 10). The desalted mixture of TMT-labelled peptides were resuspended in 200 µL of buffer A (10 mM ammonium formate, pH10) and separated on a C18 reverse phase column (4.6 × 250 mm, 3.5 μm, Waters) with a gradient from 3% B to 12.5 % B in 10 min, […]
min, 100% for 5 min, ramping to 3% B in 2.5 min and then 3% for 10 min. A total of 90 fractions (1 min per fraction) were collected before further concatenation into 30 final fractions. Each fraction was then dried and desalted over a C18 StageTip prior to analysis by mass spectrometry. […]

Row | Structure (SMILES) | Abundances (Grouped) | Ratio: (SGK3-PROTAC1) / (cSGK3-PROTAC1) | Ratio: (compound) / (DMSO) | selectivity in global proteome (8766 proteins quantified) (vs cisSGK3-PROTAC1 or DMSO)
1 | Cc1ccc(F)c(S(=O)(=O)Nc2ccc(-c3nc(OC[C@H]4CN(CCCCCCOCCOCCOCC(=O)N[C@H](C(=O)N5C[C@H](O)C[C@H]5C(=O)NCc5ccc(-c6scnc6C)cc5)C(C)(C)C)CCO4)c4cn[nH]c4n3)cc2)c1 [SGK3-PROTAC1] | 60.6 | 0.526 | 0.484 | only SGK3 expression being significantly reduced
2 | Cc1ccc(F)c(S(=O)(=O)Nc2ccc(-c3nc(OC[C@H]4CN(CCCCCCOCCOCCOCC(=O)N[C@H](C(=O)N5C[C@@H](O)C[C@H]5C(=O)NCc5ccc(-c6scnc6C)cc5)C(C)(C)C)CCO4)c4cn[nH]c4n3)cc2)c1 [cisSGK3-PROTAC1] | 115.2 |  | 0.949 | 
